Patent publication US9670480B2, “Genome-wide construction of Schizosaccharomyces pombe heterozygous deletion mutants containing gene-specific barcodes by the methods of 4-round serial or block PCR, or total gene synthesis thereof” (Korea Research Institute of Bioscience and Biotechnology, priority 2008, dated 2017)

Tests used:
Wild-type SP286 strain = experiment: IC50 measurement of growth inhibition in YES broth (final O.D600, Prism); assay type: cell-based; conditions: Schizosaccharomyces pombe, 30° C., 24 hours, read-out: IC50 (drug-induced inhibition against cell growth)
Protocol: In order to determine the concentration of the chemical for the treatment, 50% inhibitory concentration (IC50) was first measured. Wild-type SP286 strain was grown to O.D600=2.0 in YES broth and inoculated with from 5- to 10-fold serial dilutions of the chemical to O.D600=0.1, followed by incubation at 30° C. for 24 hours. At each concentration of the chemical, the cultures were measured for final O.D600 values which were then plotted against Log [Chemical Concentration]. On the basis of these plots, IC50 values were automatically calculated using Prism Software (version 3.0, GraphPad Software Inc., San Diego, Calif.). Scientific experience made it possible to determine the concentrations of the chemical at around the appropriate IC50 values.
In order to screen terbinafine's modes of action with the GeneChip, first, the treatment concentrations of drug were determined by the measurements of IC50 obtained in the above-mentioned method. In this regard, relative rates of drug-induced inhibition against cell growth were obtained by treating the cells with terbinafine at doses of 0.1 nM, 1 nM, 5 nM, 10 nM, 50 nM, 100 nM, 500 nM and […]. Analysis with Prism software determined IC50=40 nM (FIG. 11).

[1] = test system: pmm1 heterozygous deletion mutant; experiment: Reconfirmation of GeneChip result on YES agar plates containing terbinafine; assay type: cell-based, Schizosaccharomyces pombe
Protocol: (§1) Since the drug's modes of action detected with the GeneChip might include the false positive signals resulting experiment errors and false chip analysis, all the top 10 drug's modes of action, except non-specific ribosome-related genes, were cultured again on YES agar plates containing terbinafine. […] Therefore, the genes erg1 and pmm1 within the red boxes were verified as being targets of terbinafine.

[2] = test system: erg1 heterozygous deletion mutant; experiment: as above; assay type: cell-based, Schizosaccharomyces pombe
Protocol: as §1

[3] = test system: smb1 heterozygous deletion mutant; experiment: as above; assay type: cell-based, Schizosaccharomyces pombe
Protocol: as §1

Structure (SMILES): CN(C/C=C/C#CC(C)(C)C)Cc1cccc2ccccc12 [terbinafine]
- IC50 (Wild-type SP286 strain): 40 nM
- plate reconfirmation of GeneChip-based mode of action, pmm1 [1]: same results as in the chip
- plate reconfirmation of GeneChip-based mode of action, erg1 [2]: same results as in the chip
- plate reconfirmation of GeneChip-based mode of action, smb1 [3]: difference from the chip result
